Where a SMILES comes first, the peptide text is derived from it.
Experiments:
[1] = Solubility in aqueous buffer; assay type: physicochemical; conditions: pH 7.2, aqueous buffer
[2] = Stability of the maleimide moiety of MAL-FMS-NHS in aqueous solutions (GSH/DTNB); assay type: physicochemical
Method: MAL-FMS-NHS (1 mM) was incubated at room temperature in H2O (pH 6.0), in 0.007 M acetic acid (pH˜4.0), in 0.1 M phosphate buffer (pH 7.4), and in 0.1 M NaHCO3 (pH 8.5). At the indicated time points, aliquots were allowed to react with a slight excess of GSH (15 min at pH 7.2) and the concentration of unreacted GSH was determined with 5,5-dithiobis(2-nitrobenzoic acid) (DTNB).
Stability of the MAL-functional moiety in aqueous solutions. In order to test the stability of the maleimide function of MAL-FMS-NHS in aqueous solutions at different pH values, MAL-FMS-NHS (1 mM) was incubated at room temperature in water (pH 6.0), in 0.007M acetic acid (pH˜4.0), in 0.1M phosphate buffer (pH 7.4), and in 0.1M NaHCO3 (pH 8.5). At several time points, aliquots were allowed to react with a slight excess of reduced glutathione (GSH) (15 min at pH 7.2) and the concentration of unreacted GSH was determined with DTNB (5,5′-dithio-bis-2-nitrobenzoic acid, Ellman's reagent), by measuring the absorbance of the produced yellow colored 5-thio-2-nitrobenzoic acid (TNB) at 405 or 412 nm.

physchem = conditions: buffer, pH 8.5

| solubility [1] | half-life at 1 mM ([2]; 0.1 M NaHCO3 aqueous solution, 0.1M NaHCO3 pH 8.5, room temperature, read-out: t1/2 of destruction of the maleimide moiety (converted)) | stability of the maleimide function ([2]; pH 4 to 6, over a day or two) | stability of the maleimide function ([2]; pH 7.2) | SMILES | half-life (physchem) |
| --- | --- | --- | --- | --- | --- |
| > 10000 µg/mL | 2.7 ± 0.3 h | fully stable | stable over a period of several hours | O=C(CCN1C(=O)C=CC1=O)Nc1ccc2c(c1)C(COC(=O)ON1C(=O)CCC1=O)c1cc(S(=O)(=O)O)ccc1-2 (centres unmarked) [MAL-FMS-NHS, N-[2-(maleimido-propionylamino)-7-sulfo-fluoren-9-yl-methoxycarbonyloxy]-succinimide] | – |
| – | – | – | – | CC[C@H](C)[C@H](NC(=O)[C@H](CCC(=O)O)NC(=O)[C@H](C)NC(=O)OCC1c2cc(NC(=O)CCN3C(=O)C=CC3=O)ccc2-c2ccc(S(=O)(=O)O)cc21)C(=O)N[C@@H](CO)C(=O)NCC(=O)N[C@@H](CCC(N)=O)C(=O)N[C@@H](CC(C)C)C(=O)N[C@@H](CO)C(=O)N[C@@H](Cc1ccc(O)cc1)C(=O)N[C@H](C(=O)N[C@@H](CCCNC(=N)N)C(=O)N[C@@H](CC(=O)O)C(=O)N[C@H](C(=O)N[C@@H](CC(N)=O)C(=O)N[C@@H](CO)C(=O)N[C@@H](Cc1c[nH]c2ccccc12)C(=O)N[C@@H](CCC(N)=O)C(=O)N[C@@H](Cc1c[nH]cn1)C(=O)N[C@H](C(=O)N[C@@H](Cc1c[nH]c2ccccc12)C(=O)N[C@H](C(=O)N[C@@H](CC(N)=O)C(=O)N[C@H](C(=O)N[C@@H](CO)C(=O)N[C@H](C(=O)N[C@@H](CCC(=O)O)C(=O)N[C@@H](CC(N)=O)C(=O)O)[C@@H](C)CC)C(C)C)[C@@H](C)O)[C@@H](C)CC)C(C)C)C(C)C (some centres unmarked) [Mal-FMS-Peptide 27] (HELM PEPTIDE1{[O=C1C=CC(=O)N1CCC(=O)[*:2]].[O=C(OCC1c2cc(N[*:1])ccc2-c2ccc(S(=O)(=O)O)cc21)[*:2]].A.E.I.S.G.Q.L.S.Y.V.R.D.V.N.S.W.Q.H.I.W.T.N.V.S.I.E.N}$$$$V2.0; N-terminus and C-terminus assumed) | 8.4 h |

Reference: patent publication US9433683B2, “Reversible pegylated drugs” (Yeda Research and Development Co., Ltd., priority 2003, dated 2016)
